Counter-ions that a name gives are not always drawn.

This experiment addresses T1, human IKK-β (Homo sapiens, UniProt O14920).
T1 construct: A cDNA fragment encoding human IKK-β open reading frame was generated by PCR; His tag (from pcDNA3.1/His C); made in house; host or cells: Sf21 insect cells (baculovirus); substrate made in E. coli
T1 sequence (O14920 1-756): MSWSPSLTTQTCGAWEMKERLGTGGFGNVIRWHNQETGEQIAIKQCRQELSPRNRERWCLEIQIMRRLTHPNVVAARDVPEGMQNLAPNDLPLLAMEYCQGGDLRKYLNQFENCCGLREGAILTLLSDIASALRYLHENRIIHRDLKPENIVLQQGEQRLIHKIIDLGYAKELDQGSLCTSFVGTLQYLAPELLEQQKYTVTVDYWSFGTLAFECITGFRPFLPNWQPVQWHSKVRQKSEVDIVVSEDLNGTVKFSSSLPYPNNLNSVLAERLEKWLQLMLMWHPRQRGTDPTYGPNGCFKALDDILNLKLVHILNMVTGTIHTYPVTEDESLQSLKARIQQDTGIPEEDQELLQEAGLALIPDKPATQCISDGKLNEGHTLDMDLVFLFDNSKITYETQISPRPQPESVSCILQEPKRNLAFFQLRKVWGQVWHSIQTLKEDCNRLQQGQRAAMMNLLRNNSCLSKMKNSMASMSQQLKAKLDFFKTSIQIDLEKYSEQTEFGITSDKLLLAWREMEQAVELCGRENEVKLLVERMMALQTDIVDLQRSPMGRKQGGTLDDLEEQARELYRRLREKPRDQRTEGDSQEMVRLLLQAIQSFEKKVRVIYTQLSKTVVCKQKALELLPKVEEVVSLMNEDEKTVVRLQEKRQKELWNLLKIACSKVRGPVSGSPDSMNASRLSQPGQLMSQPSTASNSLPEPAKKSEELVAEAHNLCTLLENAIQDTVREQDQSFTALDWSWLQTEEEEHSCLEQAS
The experiment is described as follows: IKK-β kinase inhibitory assay. The following applies: compounds as yielded by solid phase synthesis, purity about 40 to 90%, read-out: In vitro activity grade (In vitro IC50). The experiment is classed as biochemical. Summed up: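 Radiometric read-out: streptavidin capture of 33P-labelled bio-GST-IκBα(1-54), 0.2 μM, after a 2 h room-temperature reaction started with ATP/[γ-33P]ATP. Enzyme was recombinant His-tagged human IKK-β expressed in Sf21 insect cells, used at 0.6 μg/ml in Tris-HCl pH 7.6/MgCl2 kinase buffer. Compounds added in 2.5% DMSO.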
The IC50 is the point on the concentration scale where inhibition reaches its midpoint. With `CC(C)(C)C(=O)COc1cccc(O)c1-c1cc(C2CCCNC2)c(C#N)c(N)n1` (centres unmarked) [Example 2-77], the IC50 was less than 0.5 µM.

`N#Cc1c(C2CCCC(N)C2)cc(-c2ccccc2O)nc1N` (centres unmarked) [Example 1-23]: the IC50 was less than 0.5 µM.

For the molecule `N#Cc1c(C2CCCNC2)cc(-c2c(O)cccc2OCC2CCCO2)nc1N` (centres unmarked) [Example 2-80], the IC50 is less than 0.5 µM.

`O=c1[nH]c2nc(-c3c(O)cccc3OCC3CC3)cc(C3CCCNC3)c2cc1F` (centres unmarked) [Example 25-2, 7-[2-(cyclopropylmethoxy)-6-hydroxyphenyl]-3-fluoro-5-(3-piperidinyl)-1,8-naphthyridin-2(1H)-one hydrochloride]: the IC50 was less than 0.5 µM.

Take `N#Cc1c(C2CCCNC2)cc(-c2c(O)cccc2OCc2ccccc2[N+](=O)[O-])nc1N` (centres unmarked) [Example 2-12]: the IC50 was less than 0.5 µM.

As for `N#Cc1c(C2CCCNC2)cc(-c2c(O)cccc2OCc2ccc3ccccc3c2)nc1N` (centres unmarked) [Example 2-21], the IC50 is less than 0.5 µM.

Take `CC(C)CCCOc1cccc(O)c1-c1cc(C2CCCNC2)c(C#N)c(N)n1` (centres unmarked) [Example 2-63]: the IC50 is less than 0.5 µM.

On to `NC(=O)c1cc2c(C3CCNCC3)cc(-c3c(O)cccc3OCC3CC3)nc2[nH]c1=O` [Example 25-3, 7-[2-(cyclopropylmethoxy)-6-hydroxyphenyl]-2-oxo-5-(4-piperidinyl)-1,2-dihydro-1,8-naphthyridine-3-carboxamide hydrochloride], for which the IC50 was less than 0.5 µM.

In the case of `N#Cc1c(C2CCCNC2)cc(-c2c(O)cccc2OCCC2CCCCC2)nc1N` (centres unmarked) [Example 2-61], the IC50 was less than 0.5 µM.

Turning to `CN(C)CCOc1cccc(O)c1-c1cc(C2CCCNC2)c(C#N)c(N)n1` (centres unmarked) [Example 2-85], the IC50 lay in the range of 0.5 to 2 µM.

As to `C[C@H](N)c1cc(-c2ccccc2O)nc(N)c1C#N` [Example 1-32], the IC50 is less than 0.5 µM.

For the molecule `N#Cc1c(C2CCCN(C(=O)CCN3CCCCC3)C2)cc(-c2ccccc2O)nc1N` (centres unmarked) [Example 1-41], the 50% inhibitory concentration (IC50) fell in the range of 0.5 to 2 µM.

For `CCCCCOc1cccc(O)c1-c1cc(C2CCNCC2)c(C#N)c(N)n1` [Example 2-69], the IC50 is less than 0.5 µM.

`N#Cc1c(C2CCCNC2)cc(-c2c(O)cccc2OCC2CCC2)nc1N` (centres unmarked) [Example 2-62]: the IC50 was less than 0.5 µM.

For `O=C1Nc2nc(-c3c(O)cccc3OCC3CC3)cc(C3CCCNC3)c2CN1C(=O)NC1CCCCC1` (centres unmarked) [Example 24-3, N-cyclohexyl-7-[2-(cyclopropylmethoxy)-6-hydroxyphenyl]-2-oxo-5-(3-piperidinyl)-1,4-dihydropyrido[2,3-d]pyrimidine-3(2H)-carboxamide hydrochloride], the IC50 is less than 0.5 µM.

On to `N#Cc1c(C2CCNCC2)cc(-c2c(O)cccc2OCC2CCC2)nc1N` [Example 2-68], for which the IC50 was less than 0.5 µM.

As to `Cc1cccc(COc2cccc(O)c2-c2cc(C3CCCNC3)c(C#N)c(N)n2)c1` (centres unmarked) [Example 2-07], the IC50 is less than 0.5 µM.

`N#Cc1c(C2CCCNC2)cc(-c2cccc(Cl)c2O)nc1N` (centres unmarked) [Example 1-20]: the IC50 was less than 0.5 µM.

Regarding `C=CCOc1cccc(O)c1-c1cc(C2CCNCC2)c(C#N)c(N)n1` [Example 2-74], the IC50 is less than 0.5 µM.

On to `CCOC(=O)N1Cc2c(C3CCCNC3)cc(-c3c(O)cccc3OCC3CC3)nc2NC1=O` (centres unmarked) [Example 24-2, ethyl 7-[2-(cyclopropylmethoxy)-6-hydroxyphenyl]-2-oxo-5-(3-piperidinyl)-1,4-dihydropyrido[2,3-d]pyrimidine-3(2H)-carboxylate hydrochloride], for which the IC50 is less than 0.5 µM.

(Values after patent publication US6984649B1, “Pyridine derivatives” (Bayer Aktiengesellschaft, priority 2000, dated 2006).)
